Results taken from the NIST ThermoML archive (doi:10.1021/je5010214).
Numbers after ± are expanded uncertainties.

Conditions: Liquid, Vibrating tube method

CCCCCCC [heptane]
Conditions | mass density [kg/m3]
303.15 K, 19974 kPa | 693.813 ± 0.88
303.15 K, 21920 kPa | 695.403 ± 0.88
303.15 K, 24992 kPa | 697.736 ± 0.9
303.15 K, 31958 kPa | 702.727 ± 0.93
303.15 K, 32862 kPa | 703.514 ± 0.93
303.15 K, 33112 kPa | 703.9 ± 0.93
303.15 K, 34081 kPa | 704.468 ± 0.94
303.15 K, 34980 kPa | 705.109 ± 0.94
303.15 K, 37951 kPa | 707.216 ± 0.96
303.15 K, 39904 kPa | 708.418 ± 0.97
303.15 K, 42014 kPa | 709.635 ± 0.98
303.15 K, 44896 kPa | 711.236 ± 0.99
303.15 K, 47951 kPa | 713.224 ± 1
303.15 K, 50065 kPa | 714.711 ± 1
303.15 K, 52073 kPa | 715.915 ± 1
303.15 K, 55074 kPa | 717.452 ± 1.1
303.15 K, 57989 kPa | 719.654 ± 1.1
303.15 K, 59979 kPa | 720.537 ± 1.1
303.15 K, 62052 kPa | 721.855 ± 1.1
303.15 K, 64988 kPa | 723.925 ± 1.1
303.15 K, 66030 kPa | 724.328 ± 1.1
303.16 K, 2964.9 kPa | 678.337 ± 0.82
303.16 K, 7045.6 kPa | 682.343 ± 0.83
303.16 K, 8858.2 kPa | 683.448 ± 0.84
303.16 K, 10014 kPa | 684.334 ± 0.84
303.16 K, 18021 kPa | 692.198 ± 0.87
303.16 K, 27933 kPa | 699.906 ± 0.91
303.16 K, 29990 kPa | 701.007 ± 0.92
308.15 K, 105 kPa | 671.006 ± 0.81
308.15 K, 274.3 kPa | 671.143 ± 0.81
308.15 K, 494.1 kPa | 671.318 ± 0.81
308.15 K, 803.3 kPa | 671.687 ± 0.81
308.15 K, 1039.5 kPa | 672.093 ± 0.82
308.15 K, 1916.7 kPa | 672.909 ± 0.82
308.15 K, 2980.7 kPa | 674.097 ± 0.82
308.15 K, 4990.2 kPa | 676.132 ± 0.82
308.15 K, 6964.9 kPa | 678.143 ± 0.83
308.15 K, 8864.3 kPa | 679.887 ± 0.84
308.15 K, 9863.1 kPa | 680.761 ± 0.84
308.15 K, 12009 kPa | 682.857 ± 0.85
308.15 K, 17850 kPa | 687.815 ± 0.87
308.15 K, 19930 kPa | 689.488 ± 0.88
308.15 K, 21988 kPa | 691.177 ± 0.89
308.15 K, 25012 kPa | 693.658 ± 0.9
308.15 K, 27955 kPa | 695.718 ± 0.91
308.15 K, 29906 kPa | 696.905 ± 0.92
308.15 K, 31929 kPa | 698.302 ± 0.93
308.15 K, 32886 kPa | 699.002 ± 0.94
308.15 K, 32941 kPa | 698.96 ± 0.94
308.15 K, 34011 kPa | 700.438 ± 0.94
308.15 K, 37971 kPa | 703.176 ± 0.96
308.15 K, 40011 kPa | 704.309 ± 0.97
308.15 K, 41998 kPa | 705.614 ± 0.98
308.15 K, 45017 kPa | 707.854 ± 1
308.15 K, 48033 kPa | 709.906 ± 1
308.15 K, 50044 kPa | 711.265 ± 1
308.15 K, 51977 kPa | 712.584 ± 1
308.15 K, 54982 kPa | 714.563 ± 1.1
308.15 K, 58009 kPa | 716.265 ± 1.1
308.15 K, 60030 kPa | 717.688 ± 1.1
308.15 K, 61985 kPa | 718.959 ± 1.1
308.15 K, 64980 kPa | 720.569 ± 1.1
308.16 K, 15069 kPa | 685.368 ± 0.86
308.16 K, 34949 kPa | 701.078 ± 0.95
308.16 K, 66088 kPa | 721.543 ± 1.1
313.15 K, 100.8 kPa | 666.87 ± 0.81
313.15 K, 316 kPa | 667.185 ± 0.81
313.15 K, 569.6 kPa | 667.234 ± 0.81
313.15 K, 1088.8 kPa | 668.002 ± 0.82
313.15 K, 2109.7 kPa | 669.053 ± 0.82
313.15 K, 3137 kPa | 670.192 ± 0.82
313.15 K, 5111.8 kPa | 672.198 ± 0.83
313.15 K, 6921.8 kPa | 674.169 ± 0.83
313.15 K, 9210.7 kPa | 676.379 ± 0.84
313.15 K, 10209 kPa | 677.309 ± 0.84
313.15 K, 12020 kPa | 679.079 ± 0.85
313.15 K, 15059 kPa | 681.665 ± 0.86
313.15 K, 17921 kPa | 684.308 ± 0.87
313.15 K, 19932 kPa | 686.1 ± 0.88
313.15 K, 22058 kPa | 687.733 ± 0.89
313.15 K, 24862 kPa | 690.068 ± 0.9
313.15 K, 27869 kPa | 692.385 ± 0.91
313.15 K, 29957 kPa | 693.806 ± 0.92
313.15 K, 32107 kPa | 695.43 ± 0.93
313.15 K, 32980 kPa | 696.141 ± 0.94
313.15 K, 33002 kPa | 696.147 ± 0.94
313.15 K, 33981 kPa | 697.086 ± 0.94
313.15 K, 35045 kPa | 697.948 ± 0.95
313.15 K, 38127 kPa | 700.098 ± 0.96
313.15 K, 41978 kPa | 702.778 ± 0.99
313.15 K, 44946 kPa | 704.758 ± 1
313.15 K, 47880 kPa | 706.851 ± 1
313.15 K, 52097 kPa | 709.812 ± 1
313.15 K, 54924 kPa | 711.549 ± 1.1
313.15 K, 58082 kPa | 713.474 ± 1.1
313.15 K, 59932 kPa | 714.707 ± 1.1
313.15 K, 62004 kPa | 716.103 ± 1.1
313.15 K, 64954 kPa | 717.814 ± 1.1
313.15 K, 66113 kPa | 718.367 ± 1.1
313.16 K, 860.7 kPa | 667.671 ± 0.82
313.16 K, 39997 kPa | 701.327 ± 0.97
313.16 K, 50021 kPa | 708.33 ± 1
318.15 K, 100.7 kPa | 662.812 ± 0.81
318.15 K, 336.3 kPa | 663.228 ± 0.81
318.15 K, 1105.7 kPa | 663.94 ± 0.82
318.15 K, 1929.1 kPa | 664.905 ± 0.82
318.15 K, 2933.2 kPa | 665.972 ± 0.82
318.15 K, 8989 kPa | 672.331 ± 0.84
318.15 K, 10074 kPa | 673.533 ± 0.84
318.15 K, 11896 kPa | 675.253 ± 0.85
318.15 K, 18102 kPa | 681.046 ± 0.87
318.15 K, 19985 kPa | 682.727 ± 0.88
318.15 K, 22094 kPa | 684.679 ± 0.89
318.15 K, 29998 kPa | 691.196 ± 0.93
318.15 K, 33016 kPa | 693.259 ± 0.94
318.15 K, 33180 kPa | 693.331 ± 0.94
318.15 K, 37838 kPa | 697.046 ± 0.97
318.15 K, 40092 kPa | 698.439 ± 0.98
318.15 K, 44884 kPa | 701.561 ± 1
318.15 K, 47944 kPa | 703.663 ± 1
318.15 K, 54944 kPa | 708.215 ± 1.1
318.15 K, 57972 kPa | 710.506 ± 1.1
318.15 K, 59922 kPa | 711.605 ± 1.1
318.15 K, 65022 kPa | 714.898 ± 1.1
318.15 K, 66028 kPa | 715.438 ± 1.1
318.16 K, 590.9 kPa | 663.443 ± 0.81
318.16 K, 891 kPa | 663.766 ± 0.82
318.16 K, 5020.8 kPa | 668.355 ± 0.83
318.16 K, 6926.7 kPa | 670.309 ± 0.83
318.16 K, 14800 kPa | 678.075 ± 0.86
318.16 K, 24873 kPa | 686.865 ± 0.9
318.16 K, 27909 kPa | 689.38 ± 0.92
318.16 K, 31957 kPa | 692.414 ± 0.94
318.16 K, 34110 kPa | 694.119 ± 0.95
318.16 K, 35048 kPa | 694.934 ± 0.95
318.16 K, 41996 kPa | 699.6 ± 0.99
318.16 K, 49950 kPa | 705.2 ± 1
318.16 K, 52037 kPa | 706.412 ± 1
318.16 K, 61930 kPa | 712.85 ± 1.1
323.15 K, 102.3 kPa | 658.378 ± 0.81
323.15 K, 296.1 kPa | 658.71 ± 0.81
323.15 K, 528.4 kPa | 658.782 ± 0.81
323.15 K, 994.2 kPa | 659.429 ± 0.82
323.15 K, 2006.9 kPa | 660.61 ± 0.82
323.15 K, 2966.6 kPa | 661.806 ± 0.82
323.15 K, 4996.2 kPa | 663.968 ± 0.83
323.15 K, 7042.1 kPa | 666.276 ± 0.83
323.15 K, 9029.9 kPa | 667.858 ± 0.84
323.15 K, 10090 kPa | 669.742 ± 0.84
323.15 K, 11914 kPa | 670.973 ± 0.85
323.15 K, 15111 kPa | 674.373 ± 0.86
323.15 K, 17981 kPa | 677.251 ± 0.87
323.15 K, 20038 kPa | 678.71 ± 0.88
323.15 K, 21995 kPa | 680.737 ± 0.89
323.15 K, 24993 kPa | 683.213 ± 0.9
323.15 K, 32079 kPa | 689.177 ± 0.94
323.15 K, 33103 kPa | 689.972 ± 0.94
